# Laboratory results as given in ChEMBL document CHEMBL1201862, “PubChem BioAssay data set” (2004).
# Active and inactive are the calls of the source.
# Legend:
# [1] = MIN6 cell viability loss – mouse insulinoma, cytotoxicity control, dose response (AID 2122); format: functional;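 further: confirmatory high-throughput counterscreen run to flag cytotoxic compounds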
# [2] = system: HEK293; assay: inhibition of NOD1-driven NF-kB reporter – cell-based, luminescence, uHTS, primary screen (AID 1578); format: functional; details: Homo sapiens
# [3] = non-specific 3'UTR reporter inhibition in Clone20-Shn3RL – cell-based, Renilla luciferase, cherry-picked, counter-screen for Shn3 inhibitor project, dose response (AID 624133); format: functional
# [4] = reduction of Shn3 3'UTR-driven luciferase in osteoblasts – cell-based, Clone20 osteoblasts, firefly luciferase, cherry-picked, dose response (AID 624132); format: functional;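 further: firefly luciferase luminescence from reporter carrying the Shn3 3'UTR in osteoblasts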
# [5] = system: HEK293; assay: cells; format: functional, cell-based; details: Homo sapiens
# [6] = system: HEK293; assay: cells; format: functional, cell-based; details: Homo sapiens; remark: listed apart in the source
# [7] = system: HEK293; assay: NOD2 signaling inhibitors in MDP-stimulated cells, cell-based, uHTS, luminescence (AID 2001); format: functional; details: Homo sapiens
# [8] = decrease of insulin promoter-GFP reporter – imaging, high-content screening, mouse beta cells (AID 1628); format: functional; details: MIN6
# [9] = loss of viability in HepG2 cells – cell-based, CellTiter-Glo, cherry-picked, cytotoxicity control for Shn3 inhibitor project, dose response (AID 624134); format: functional
# [10] = biological target: T1, Nuclear receptor subfamily 0 group B member 1 (Homo sapiens, UniProt P51843); assay: Luminescence-based cell-based high throughput dose response assay for inhibitors of the orphan nuclear receptor subfamily 0, group B, member 1 (DAX1; NR0B1). [Related pubchem assays (depositor defined):AID504766, AID504790]; format: functional
# T1 sequence (P51843 whole entry): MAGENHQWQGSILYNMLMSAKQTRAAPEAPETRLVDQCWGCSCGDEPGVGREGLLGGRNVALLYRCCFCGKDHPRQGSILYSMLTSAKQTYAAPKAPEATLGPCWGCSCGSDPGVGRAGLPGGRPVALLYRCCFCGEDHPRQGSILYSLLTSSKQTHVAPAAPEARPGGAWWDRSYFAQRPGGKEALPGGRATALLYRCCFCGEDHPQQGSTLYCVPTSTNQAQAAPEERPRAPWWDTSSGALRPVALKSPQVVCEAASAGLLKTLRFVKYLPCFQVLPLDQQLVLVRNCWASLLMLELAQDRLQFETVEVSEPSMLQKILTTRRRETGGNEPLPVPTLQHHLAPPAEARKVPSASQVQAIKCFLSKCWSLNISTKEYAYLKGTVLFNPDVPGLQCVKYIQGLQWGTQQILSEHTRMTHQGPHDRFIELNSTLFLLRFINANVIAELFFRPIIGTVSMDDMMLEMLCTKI
# [11] = biological target: Genome polyprotein (dengue virus type 2, UniProt P29990); assay: flavivirus cap methylation enzyme inhibition – biochemical, confirmation dose response, primary screen (AID 588689); format: functional
# Chain of Genome polyprotein (P29990 2492-3391 limits assumed): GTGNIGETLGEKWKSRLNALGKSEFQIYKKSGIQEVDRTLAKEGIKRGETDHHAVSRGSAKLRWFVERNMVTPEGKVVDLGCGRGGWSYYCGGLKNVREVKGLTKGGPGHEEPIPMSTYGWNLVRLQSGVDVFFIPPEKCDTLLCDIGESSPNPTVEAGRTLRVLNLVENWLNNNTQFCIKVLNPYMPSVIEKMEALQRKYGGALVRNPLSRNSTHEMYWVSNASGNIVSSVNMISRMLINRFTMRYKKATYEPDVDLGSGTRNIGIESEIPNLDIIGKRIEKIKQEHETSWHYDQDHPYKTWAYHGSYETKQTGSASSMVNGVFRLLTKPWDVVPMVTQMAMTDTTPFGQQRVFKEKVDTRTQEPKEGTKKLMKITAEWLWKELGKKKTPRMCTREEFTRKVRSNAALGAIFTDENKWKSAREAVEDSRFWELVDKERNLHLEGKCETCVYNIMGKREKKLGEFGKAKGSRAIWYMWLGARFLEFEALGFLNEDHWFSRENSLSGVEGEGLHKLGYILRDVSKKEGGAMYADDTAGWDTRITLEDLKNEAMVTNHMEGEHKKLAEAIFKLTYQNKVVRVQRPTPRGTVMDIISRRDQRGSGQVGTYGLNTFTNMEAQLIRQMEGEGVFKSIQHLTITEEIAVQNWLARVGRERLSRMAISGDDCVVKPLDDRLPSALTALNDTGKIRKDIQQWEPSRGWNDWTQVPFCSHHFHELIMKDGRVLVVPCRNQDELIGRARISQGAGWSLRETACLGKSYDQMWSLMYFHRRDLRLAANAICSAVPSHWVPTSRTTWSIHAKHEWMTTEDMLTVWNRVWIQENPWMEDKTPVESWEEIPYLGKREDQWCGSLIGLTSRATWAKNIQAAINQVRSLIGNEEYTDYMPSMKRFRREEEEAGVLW
# [12] = system: HEK293; assay: cells; format: functional, cell-based; details: Homo sapiens; remark: listed apart in the source
# [13] = biological target: T2, Lysine-specific demethylase 4C (Homo sapiens, UniProt Q9H3R0); assay: inhibition of JMJD2C H3K9me3 demethylation – biochemical, DELFIA europium, cherry-picked samples, dose response (AID 488835); format: functional
# T2 sequence (Q9H3R0 whole entry): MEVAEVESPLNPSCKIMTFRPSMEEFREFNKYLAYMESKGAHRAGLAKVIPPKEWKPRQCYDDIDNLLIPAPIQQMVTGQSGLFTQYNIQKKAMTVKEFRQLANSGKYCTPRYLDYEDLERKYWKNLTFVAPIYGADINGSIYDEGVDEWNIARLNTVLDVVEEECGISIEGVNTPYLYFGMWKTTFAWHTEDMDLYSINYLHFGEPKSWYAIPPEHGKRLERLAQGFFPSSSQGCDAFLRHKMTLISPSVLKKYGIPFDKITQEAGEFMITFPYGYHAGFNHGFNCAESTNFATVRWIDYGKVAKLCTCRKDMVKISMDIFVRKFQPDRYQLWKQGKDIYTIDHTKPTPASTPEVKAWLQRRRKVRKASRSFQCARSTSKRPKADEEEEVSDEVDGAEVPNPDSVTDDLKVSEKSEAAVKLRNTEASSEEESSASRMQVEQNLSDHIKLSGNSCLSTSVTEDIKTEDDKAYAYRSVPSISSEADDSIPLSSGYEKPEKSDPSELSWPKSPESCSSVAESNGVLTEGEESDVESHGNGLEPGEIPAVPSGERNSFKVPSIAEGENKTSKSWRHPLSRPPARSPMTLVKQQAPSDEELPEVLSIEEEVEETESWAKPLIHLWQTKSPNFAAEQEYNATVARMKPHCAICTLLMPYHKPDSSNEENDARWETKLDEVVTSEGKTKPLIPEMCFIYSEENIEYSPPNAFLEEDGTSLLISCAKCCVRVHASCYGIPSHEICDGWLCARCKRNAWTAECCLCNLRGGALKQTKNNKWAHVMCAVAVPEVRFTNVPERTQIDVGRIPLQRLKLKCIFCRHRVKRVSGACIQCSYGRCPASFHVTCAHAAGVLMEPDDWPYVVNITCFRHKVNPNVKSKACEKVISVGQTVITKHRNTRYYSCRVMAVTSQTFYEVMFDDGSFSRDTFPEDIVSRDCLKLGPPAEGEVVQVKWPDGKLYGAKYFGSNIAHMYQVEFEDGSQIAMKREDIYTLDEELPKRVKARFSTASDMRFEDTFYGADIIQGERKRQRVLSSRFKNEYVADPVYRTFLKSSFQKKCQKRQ
# [14] = biological target: Eukaryotic translation initiation factor 4E (Mus musculus, UniProt P63073); assay: blockers of eIF4G binding by eIF4E – biochemical, TR-FRET, dose response (AID 855); format: functional;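 further: potency for disrupting eIF4E binding to eIF4GI seen as loss of FRET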
# Chain of Eukaryotic translation initiation factor 4E (P63073 whole entry): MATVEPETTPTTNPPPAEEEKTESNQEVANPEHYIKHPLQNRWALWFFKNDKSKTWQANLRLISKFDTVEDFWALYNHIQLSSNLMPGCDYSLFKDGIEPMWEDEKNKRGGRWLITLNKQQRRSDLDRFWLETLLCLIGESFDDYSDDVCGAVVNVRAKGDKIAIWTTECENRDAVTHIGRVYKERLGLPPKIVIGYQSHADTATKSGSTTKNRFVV
# [15] = biological target: Trypsin (Sus scrofa, UniProt P00761); assay: trypsin protease activity blockade – biochemical, quenched peptide fluorescence, cherry-pick, selectivity assay for Rce1 protease inhibitor project, dose response (AID 488789)
# Chain of Trypsin (P00761 whole entry): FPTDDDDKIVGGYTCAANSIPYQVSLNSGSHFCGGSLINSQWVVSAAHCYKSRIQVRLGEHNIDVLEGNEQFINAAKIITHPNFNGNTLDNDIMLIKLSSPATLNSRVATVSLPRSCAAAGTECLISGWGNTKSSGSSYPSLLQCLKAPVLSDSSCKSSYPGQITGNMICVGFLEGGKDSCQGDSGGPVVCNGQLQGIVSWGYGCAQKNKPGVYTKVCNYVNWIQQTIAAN
# [16] = biological target: T3, CAAX prenyl protease 2 (Homo sapiens, UniProt Q9Y256); assay: inhibition of Ras-converting CAAX protease Rce1 – biochemical, yeast membranes, quenched-peptide fluorescence, cherry-pick, dose response (AID 588849)
# T3 sequence (Q9Y256 whole entry): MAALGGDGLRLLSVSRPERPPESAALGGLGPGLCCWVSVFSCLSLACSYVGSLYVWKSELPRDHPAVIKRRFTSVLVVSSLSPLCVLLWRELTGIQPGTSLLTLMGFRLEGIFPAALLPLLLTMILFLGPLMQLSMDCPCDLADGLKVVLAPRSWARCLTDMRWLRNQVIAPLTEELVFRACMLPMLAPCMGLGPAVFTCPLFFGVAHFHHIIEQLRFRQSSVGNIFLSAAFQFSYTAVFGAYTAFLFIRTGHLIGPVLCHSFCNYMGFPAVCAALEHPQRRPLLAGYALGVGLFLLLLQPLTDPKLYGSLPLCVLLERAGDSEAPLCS
compound,measurement,setting,value
CCN1CCN(Cc2ccc(NC(=O)c3ccc(C)c(NC(=O)C(=O)c4c[nH]c5ccccc45)c3)cc2C(F)(F)F)CC1,IC50,[1],1.09 µM (active)
same,EC50,[2],17.2 µM (active)
same,AC50,[3],3.42 µM (active)
same,AC50,[4],7.49 µM (active)
same,IC50,[5],18.5 µM (active)
same,IC50,[6],4.96 µM (active)
same,IC50,[7],13.1 µM (inactive)
same,IC50,[8],2.15 µM (active)
same,AC50,[9],9.8 µM (active)
CCOc1cc(/C=C2\C(=O)NC(=O)N(C)C2=O)cc([N+](=O)[O-])c1O,IC50,[10],> 67.5 µM (inactive)
same,IC50,[11],19.9 µM (active)
same,IC50,[12],51.7 µM (inactive)
COc1ccc(CNCC(=O)Nc2sccc2C#N)cc1,AC50,[13],25 µM (active)
COc1ccc(CC2C(=O)NC(=O)N(c3ccccc3)C2=O)c(OC)c1 (configuration not stated),AC50,[13],7.62 µM (active)
same,IC50,[14],> 64 µM (inactive)
NS(=O)(=O)c1ccc(CCNC(=O)c2ccc3ccccc3n2)cc1,AC50,[15],4.75 µM (active)
same,AC50,[16],4.74 µM (active)
